# Reference: patent US20110112086A1, “PYRIDINONE ANALOGS” (CYLENE PHARMACEUTICALS, INC., priority 2006, published 2011)
# Tests used:
# HCT-116 = HCT-116 MTS cell viability assay; format: cell-based; conditions: Homo sapiens, HCT-116 cells
# nucleolin = target: T1, nucleolin (Homo sapiens, UniProt P19338); assay: Nucleolin/nucleic acid ligand gel retardation binding assay; design: key: A “+” represents the weakest nucleolin affinity; a “++++” represents the strongest nucleolin affinity; conditions: relative affinity of nucleic acid ligand for recombinant nucleolin (MBP fusion)
# T1 construct: without the N-terminal acidic stretches domain
# T1 sequence (P19338 284-710 limits assumed): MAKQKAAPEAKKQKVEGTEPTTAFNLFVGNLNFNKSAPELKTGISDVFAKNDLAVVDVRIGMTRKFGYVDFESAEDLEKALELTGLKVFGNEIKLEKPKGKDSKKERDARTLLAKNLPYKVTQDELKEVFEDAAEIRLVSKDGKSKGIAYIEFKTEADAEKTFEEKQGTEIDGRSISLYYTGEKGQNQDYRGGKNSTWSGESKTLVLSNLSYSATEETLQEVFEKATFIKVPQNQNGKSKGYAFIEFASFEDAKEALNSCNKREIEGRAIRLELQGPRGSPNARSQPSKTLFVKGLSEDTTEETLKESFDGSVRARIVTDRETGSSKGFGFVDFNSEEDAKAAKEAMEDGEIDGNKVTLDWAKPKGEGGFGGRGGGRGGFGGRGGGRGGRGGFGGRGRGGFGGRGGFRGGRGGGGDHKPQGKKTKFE
# Procedure: The following assays can be used to assess the effects of compounds on interactions between nucleolin and nucleic acid ligands capable of forming quadruplex (QP) and hairpin (HP) secondary structures. Nucleic acid ligands tested were a cMyc QP DNA having nucleotide sequence 5′-[…]-3′ and a HP pre-rRNA region to which nucleolin binds, having the sequence 5′-[…]-3′. In the assays, recombinant nucleolin (˜250 nM), which has been fused to maltose binding protein, and has the sequence under accession number NM_005381 without the N-terminal acidic stretches domain, is incubated with each of the two ^32P-labeled nucleic acid ligands (10 or 250 nM). Nucleolin and the nucleic acid ligand are incubated in the presence or absence of a test compound 7 in an incubation buffer (12.5 mM Tris, pH 7.6, 60 mM KCl, 1 mM MgCl2, 0.1 mM EDTA, 1 mM DTT, 5% glycerol, 0.1 mg/ml BSA) for 30 minutes at room temperature.
# The resulting complexes are separated on a 6% DNA retardation gel using 0.5×TBE with 20 mM KCl as a running buffer. The assay also can be conducted using nucleic acid ligands derived from human ribosomal DNA, whereby one can identify a compound that selectively modulates formation of a nucleolin/nucleic acid complex that depends on the conformation of the nucleic acid. Sequences of suitable nucleic acids are shown in the preceding example. […] A “+” represents the weakest nucleolin affinity and a “++++” represents the strongest nucleolin affinity. […] Using nucleic acids such as these having known conformational properties, one can identify a compound such as the compounds described herein that selectively interferes with binding of nucleolin to a particular quadruplex structure.
Molecule,IC50 (HCT-116) [nM],Affinity for Nucleolin (nucleolin)
O=C(NCCN1CCCC1)c1c(=O)c2cc(N3CCCC3)sc2n2c1sc1ccccc12,50,–
CCOC(=O)c1c(=O)c2ccsc2n2c1[nH]c1ccccc12,10000,–
CCOC(=O)c1c(=O)c2cc(Br)sc2n2c1sc1ccccc12,10000,–
CCOC(=O)c1c(=O)c2ccsc2n2c1sc1ccccc12,9800,–
CCOC(=O)c1c(=O)c2ccsc2n2c1[nH]c1cc3ccccc3cc12,4000,–
O=C(NCc1ccccn1)c1c(=O)c2ccsc2n2c1sc1ccccc12,2050,–
7733T: nucleic acid ligand derived from human ribosomal DNA: GGGAGGGGCACGGGCCGGGGGCGGGACGGG (chemistry not given here) [Compound 7733T],–,+
Cn1c2ccccc2n2c3sccc3c(=O)c(C(=O)NCCN3CCCC3)c12,3200,–
O=C(NCCN1CCOCC1)c1c(=O)c2ccsc2n2c1sc1ccccc12,2100,–
11028NT: nucleic acid ligand derived from human ribosomal DNA: GGGGCGCGGCGGGGGGAGAAGGGTCGGGGCGGCAGGGG (chemistry not given here) [Compound 11028NT],–,+
8749NT: nucleic acid ligand derived from human ribosomal DNA: GGGAGGGCGCGCGGGTCGGGG (chemistry not given here) [Compound 8749NT],–,+
O=C(NCCN1CCCC1)c1c(=O)c2cc(Cl)sc2n2c1sc1ccccc12,10,–
1196NT: nucleic acid ligand derived from human ribosomal DNA: GGGTGGACGGGGGGGCCTGGTGGGG (chemistry not given here) [Compound 1196NT],–,+
CCOC(=O)c1c(=O)c2cc(Cl)sc2n2c1sc1ccccc12,10000,–
O=C(NCCN1CCCC1)c1c(=O)c2ccsc2n2c1sc1ccccc12,40,–
Cn1c2cc3ccccc3cc2n2c3sccc3c(=O)c(C(=O)NCCN3CCCC3)c12,300,–
8511NT: nucleic acid ligand derived from human ribosomal DNA: GGGGGTGGGCGGGCGGGGCCGGGGGTGGG (chemistry not given here) [Compound 8511NT],–,++++
6183NT: nucleic acid ligand derived from human ribosomal DNA: GGGTCGGGGGCGGTGGTGGGCCCGCGGGGG (chemistry not given here) [Compound 6183NT],–,+
"8762NT: nucleic acid ligand derived from human ribosomal DNA: CGGAGGGCGCGCGGGTCGGGGCGGCGGCGGCGGCGGCGGTGGCGGCGGCGGCGGGGGCGGCGGG (nucleic acid, chemistry not given here) DNA: CGGAGGGCGCGCGGGTCGGGGCGGCGGCGGCGGCGGCGGTGGCGGCGGCGGCGGGGGCGGCGGG",–,++++
